Results published in US20110306579A1, “METHODS OF NEUROPROTECTION USING NEUROPROTECTIVE STEROIDS AND A VITAMIN D” (EMORY UNIVERSITY, priority 2009, published 2011).
Structures can show the parent of a compound that is named as a salt.

How the values were obtained:
[1] = test system: 20-month old Fischer 344 rats; assay: Cerebral edema analysis after cortical contusion brain injury; assay type: in vivo, rat; conditions: 4 mg/kg; for edema compared to subjects treated with vehicle: 24 hours post brain injury; for mean % difference edema: brain tissue 24 hours post brain injury, i.p. at 1 h, s.c. at 6 and 24 h
Procedure: The methodology used is described in VanLandingham et al., Neuropharmacology, 2006, 51, 1078-1085.
Sterile surgical procedures were used to prevent animal infection. Rats (20-month old Fischer 344 rats, which are the “human” equivalent of about 60 years old) were anesthetized and maintained on isoflurane and an equivalent amount of […] and O2 for 3 min prior to surgery. After brain contusion, O2 levels were doubled compared to […] and maintained through the reainder of the surgery procedure. A stereotaxic apparatus was used to stabilize the head in a horizontal position. Core body temperature was monitored and maintained at 37° C. using a Harvard homeothermic blanket (Harvard Apparatus, Holliston, Mass.). There was no direct measure used to deterct brain temperature. Blood oxygen and heart rate were maintained using a SurgiVet monitor (SurgiVet, Waukesha, Wis.) and maintained above 90% and 340 bpm respectively. A midline incision was made and the scalp retracted. A bilateral 6-mm craniotomy was performed with surgical drill centered at 3 mm rostral to bregma. The stainless steel impactor was positioned over the MFC at 3.0 mm A/P and 0.0 M/L. These coordinates represent the MFC as described by Paxinos and Watson (The Rat Brain in Stereotaxic Coordinates, Academic Press, San Diego, 1986). The cortical injury was induced using a pneumatically controlled device (Hoffman et al., J. Neurotrauma, 1994, 11, 417-431). Brain impact duration was 0.5 s. using a 5-mm impactor tip with a velocity set at 2.125 m/s and a cortical depth of 2 mm. Following the contusion, bleeding was halded and fascia and scalp were sutured shut. After surgery, animals were allowed to recover from anesthesia on a homeothermic heating blanket in a holding cage until awake. sham surgeries controlled for anesthesia and stress. All surgical procedures were the same, except that sham rates were not given a craniotomy or cortical injury. Previous studies using craniotomy as a control found no differences between shams with or without this procedure. (Goss et al., Pharmacol. Biochem. Behay. 2003, 76(2), 231-242).
These experimental solutions were then diluted 1:1 with sterile water for a final concentration of HBC of 22.5%.
All injections were done at the same time with brain harvesting at 24 h post-injury. Rats in each group were weightd prior to treatment to ensure proper dosage. The first injection at 1 h after surgery was given intraperitoneally to ensure rapid adsorption. All subsequent injections were made subcutaneously for gradual adsorption at 6 and 24 h. Injection times and neurosteroid doses were based on previous results of neurosteroid treatment (Roof et al., Twenty First Annual Meeting of the Society for Neuroscience, Miami Beach Fla., p. 191 and He et al., Exp. Neurol. 2004, 189, 404-412). The sterioids were dissolved in vehicle (22.5% 2-hydroxypropyl-b-cyclodextrin solution) at 4 mg/kg. The sham group received no treatment and injury control group received vehicle only.
At 24 h after traumatic brain injury flresh brains were extracted from the skull and the dorsal cerebrum was separated along the line of the lateral fissure. Four 3-mm coronal sections were cut rostral to caudal, placed in pre-weighed 1.5 mL tubes and re-weighed (wet weight). Tubes were then left uncapped and placed in a vacuum oven set at 60° C. with an atmospheric pressure of 0.3 for 48 h. Following tube recapping, the tissue samples were again weighed (dry weight). Cerebral edema (% water content) was determined as the difference in wet and dry weights divided by wet weight (Roof and Stein Restor. Neurol. Ncurosci., 1992, 4, 425-427). Edema measures are reflective of the difference inwater content between at the average of the two most rostral (injury region) segments and most caudal (occipital cortex) segments of the dorsal sections of the brain.

[2] = test system: rat model of peripheral nerve injury; conditions: 100 IU/kg/day following nerve injury; cited from earlier work
MAPK (ERK1/2) = assay: MAPK phosphorylation (p-ERK1/2 Western blot) in primary cortical neurons; assay type: cell-based, rat; conditions: VDH 100 nM, 30-minute treatment
Procedure: PROG and VDH were added to the primary cultures, as described above, for 30 minutes ([…], et al., (2002) Endocrinology 143: 205-212) and the cells were lysed using RIPA lysis buffer kit (sc-24948, Santa Cruz, Calif., USA). Protein was determined in cell lysates by bicinchoninic acid (BCA) protein assay (Cat. # 23225, Pierce, Rockford, Ill., USA). Cell lysates (40 μg protein each sample) were separated under reducing and denaturing conditions by 12.5% acrylamide Criterion gel (BioRad, Hercules, Calif., USA) at 200V for 1 hour and transferred to a polyvinylidene difluoride (PVDF) membrane at 100V for 30 minutes. The non-specific binding sites of the membrane were blocked with 5% non-fat dry milk in PBS-T (phosphate buffered saline containing 0.05% Tween-20). […] Membranes were then incubated in horseradish peroxidase (HRP)-conjugated secondary antibody (Goat anti-rabbit IgG; 074-1506, KPL, Gaithersburg, Md., USA). β-actin was probed as a loading control. Blots were developed using a chemiluminescent substrate (Pierce) for 5 minutes.

[3] = test system: E18 rat primary cortical neurons; assay: Morphological analysis of cortical cultures (phase contrast); assay type: cell-based; conditions: glutamate 0.5 μM for 24 h; data not shown
Excerpt: Changes in the morphology of neurons treated with different drugs in various groups were observed using a phase-contrast microscope (Nikon). Primary cultures were mainly observed for neurite outgrowth, a hallmark feature of healthy cells, and the density of healthy cells in different groups.

[4] = test system: E18 rat primary cortical neurons; assay: Glutamate-induced excitotoxic cell death (LDH release and MTT reduction assays); assay type: cell-based
Excerpt: Lactate dehydrogenase (LDH) release and 3-(4,5-dimethylthiazol-2-yl)-2,5-diphenyltetrazolium bromide (MTT) reduction assays were used to measure cell death. NeuroPureTM E18 primary rat cortical cells were commercially procured (Catalogue # N200200, Genlantis, San Diego, Calif., USA) as micro-surgically dissected regions from day 18 embryonic Sprague-Dawley rat brain. The tissues were processed for culturing according to manufacturer specifications. Briefly, enzymatic pre-treatment of the tissue was done prior to mechanical dissociation by incubating the tissues in sterile NeuroPapain enzyme solution at 30° C. for 30 minutes. Following incubation, the cells were centrifuged and transferred to fresh plating medium, where they were then dissociated into isolated neurons using a P-1000 pipettor with a sterile 1 ml plastic tip (0.8-1.0 mm diameter opening). The cells were again centrifuged and seeded in multi-well plates pre-coated with poly-D-lysine (0.15 ml/cm^2, 50 μg/ml) and maintained at 37° C. in a humidified 5% CO2 atmosphere. All experiments were performed after 9-10 days in culture. Twenty-four hours before glutamate exposure, cultures were pre-treated with both PROG (Cat. #P3972; Sigma Aldrich, St. Louis, Mo., USA) and VDH(Cat. #D1530; Sigma) separately or in combination with VDH at various concentrations. Stock solutions of PROG and VDH were prepared in dimethylsulfoxide (DMSO; Cat. #D2650; […] Glutamate was diluted in phosphate-buffered saline (PBS, pH 7.4). All reagents were filter sterilized before being added to cultures. At Day 11, cortical neurons in fresh media were separated into five treatment groups: (i) control; (ii) 24 hour treatment with 0.5 μM glutamate (Sribnick E A, et al., (2004) J Neurosci Res 76: 688-696); ([…]) with subsequent exposure to glutamate for 24 hours; (iv) 24 hour pre-treatment with VDH (1, 5, 10, 20, 40, 80, 100 nM) with subsequent exposure to glutamate for 24 hours; (v) 24 hour pre-treatment with different combinations of PROG and […]: 20 μM+VDH: 1, 5, 10, 20, 40, 80, 100 nM) with subsequent exposure to glutamate for 24 hours. Two widely accepted assays (LDH release and MTT reduction assay) for the measurement of cell viability were used. These assays are considered very reliable and reproducible with high predictive validity and are widely used in various pharmacological studies ([…], et al., (2002) Endocrinology 143: 205-212.). The LDH assay was performed as follows. […] LDH activity was measured using a Cytotoxicity Detection Kit (Roche Molecular Biochemicals, Indianapolis, Ind., USA) and quantitated by measuring absorbance at 490 nm. Data were normalized against the amount of LDH activity released from vehicle-treated control cultures receiving no glutamate. Neuronal death was also assessed by MTT [3-(4,5-dimethylthiazol-2-yl)-2,5-diphenyltetrazolium bromide] assay, which is based on the cleavage of the tetrazolium ring of the pale yellow MTT into dark blue formazan crystals by mitochondrial dehydrogenase enzyme in viable cells. These blue formazan crystals accumulate within the cells due to their impermeability to cell membrane, and are then solubilized by adding DMSO. The intensity of blue colored formazan solution is directly proportional to the number of surviving cells. Concentrations were determined by photometric analysis. Briefly, 10 μl of MTT were added per well and incubated at 37° C. for 4 hours until purple precipitate was visible. DMSO (50 μl) was added to solubilize the crystals and the absorbance was read at 570 nm.

[5] = test system: 20-month-old male Fischer 344 rats; assay: Spontaneous locomotor activity (open field) after TBI; assay type: in vivo, rat; conditions: 72 hours after injury; normalized to sham
Excerpt: The animals in this study were separated into two groups, vitamin D normal (D-normal) and vitamin D deficient (D-deficient). […] Animals in the D-deficient group were maintained on the diet for at least 21 days prior to surgery. […] For this same reason the null diet was not altered in any other way, and the rats assigned to the D-deficient group were maintained on it until they were killed for harvesting of brain tissue. Since vitamin D is activated by UVB light (280-315 nm wavelength), the overhead lights were modified to not produce radiation in this range.
Animals dehydrated due to blood loss were given 3 mL of lactated Ringer's solution subcutaneously within 6 hours of injury.
Animals were assigned to D-normal or D-deficicnt groups. […] The same assignment was followed for both 24-hour and 72-hour survival groups. […] All drug treatments were dissolved in vehicle, and injection volume was equally proportional to each animal's weight across all groups. The intact sham (SHAM) groups served to provide baseline data and therefore received no injury or injections.
In addition to molecular measures of inflammatory cytokines, the behavioral effects of the various treatments were examined. Since this study was limited to the short term effects on inflammation, only short-term Spontaneous Locomotor Activity was used.

[6] = biological target: T1, vitamin D binding protein (DBP) (Homo sapiens, UniProt P02774); conditions: cited from earlier work
T1 construct: host or cells: serum
T1 sequence (P02774 17-474): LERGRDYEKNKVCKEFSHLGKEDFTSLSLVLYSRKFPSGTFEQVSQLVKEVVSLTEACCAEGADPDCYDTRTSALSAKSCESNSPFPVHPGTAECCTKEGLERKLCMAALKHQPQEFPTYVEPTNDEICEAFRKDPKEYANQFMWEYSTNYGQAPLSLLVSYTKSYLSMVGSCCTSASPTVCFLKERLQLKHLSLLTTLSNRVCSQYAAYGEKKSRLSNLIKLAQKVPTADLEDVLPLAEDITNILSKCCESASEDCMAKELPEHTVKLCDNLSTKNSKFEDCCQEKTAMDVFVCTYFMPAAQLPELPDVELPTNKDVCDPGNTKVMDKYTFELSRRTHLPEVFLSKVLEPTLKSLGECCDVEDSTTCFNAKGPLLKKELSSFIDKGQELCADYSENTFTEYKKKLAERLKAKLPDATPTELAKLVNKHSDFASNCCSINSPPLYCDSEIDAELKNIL

[7] = Phase 1 and Phase 2 human trials; cited from earlier work

Compound: CC(=O)[C@H]1CCC2C3CCC4=C/C(=N/OC(=O)[C@@H](N)Cc5c[nH]c6ccccc56)CC[C@]4(C)C3CC[C@@]21C (stereo partly drawn) [Compound 79, O-L-Tryptophan-C3-oxime-progesterone HCl salt]
- edema compared to subjects treated with vehicle [1]: decrease in edema
- mean % difference edema [1]: 1.9%

Compound: C=C1CC[C@H](O)C/C1=C/C=C1\CCC[C@]2(C)[C@@H]([C@H](C)/C=C/[C@H](C)C(C)C)CC[C@@H]12 [vitamin D2, ergocalciferol]
- axogenesis and axon diameter [2]: significantly increased axogenesis and axon diameter

Compound: CC(C)[C@H](N)C(=O)O[C@@H](C)[C@H]1CCC2C3CCC4=CC(=O)CC[C@]4(C)C3CC[C@@]21C (stereo partly drawn) [Compound 57, 20-S-L-Valine-progesterone HCl salt]
- edema compared to subjects treated with vehicle [1]: decrease in edema
- mean % difference edema [1]: 3.3%

Compound: C=C1/C(=C\C=C2/CCC[C@]3(C)[C@@H]([C@H](C)CCCC(C)(C)O)CC[C@@H]23)C[C@@H](O)C[C@@H]1O [VDH, 1,25-dihydroxyvitamin D3]
- increase in p-ERK1/2 level compared to control group (MAPK (ERK1/2)): 1.7 ×
- morphology of neurons (neuronal processes, number of neurons) after glutamate [3]: rescued neurons
- best (most effective) concentration alone against glutamate-induced neuronal death ([4]; LDH and MTT assays): 0.1 µM
- shape of concentration response curve for neuroprotection against glutamate toxicity ([4]; VDH alone, or PROG 20 μM with VDH 1-100 nM): U-shaped
- neuroprotection against glutamate toxicity compared to vehicle-only group ([4]; VDH higher concentrations (1-10 μM)): did not prevent neuronal loss
- neuroprotection against glutamate toxicity compared to vehicle-only group ([4]; VDH lower concentrations (0.001-0.5 μM), P<0.001): significantly protective
- spontaneous locomotor activity (total distance, resting, stereotypy, movement time) [5]: little or no benefit

Compound: C=C1CC[C@H](O)C/C1=C/C=C1\CCC[C@]2(C)[C@@H]([C@H](C)CCCC(C)(C)O)CC[C@@H]12 [Compound 25OHD3, 25-hydroxyvitamin D3]
- fraction of total in serum bound by DBP [6]: about 88%

Compound: CC(=O)[C@H]1CC[C@H]2[C@@H]3CC[C@H]4C[C@](C)(O)CC[C@]4(C)[C@H]3CC[C@]12C [ganaxolone, 3a-hydroxy-3b-methyl-5a-pregnan-20-one]
- tolerability [7]: well tolerated

Compound: CC(=O)[C@H]1CCC2C3CCC4=C[C@@H](OC(=O)[C@@H](N)C(C)C)CC[C@]4(C)C3CC[C@@]21C (stereo partly drawn) [Compound 31, 3β-L-Valine-progesterone-HCl]
- edema compared to subjects treated with vehicle [1]: decrease in edema
- mean % difference edema [1]: 2.2%
